Patent publication US6767991B1, “Hepatitis C inhibitor peptides” (priority 1997, dated 2004)
Like-named read-outs stand apart in the source and are kept apart here. *1 amine or outer side, *2 acyl side, *3 side chain or, on linkers, in order; H or OH if unused. Where a SMILES comes first, the peptide text is derived from it. Where no end group is shown, it is not given here. [ ]: non-standard residue; d: D form. The star is where a group is joined. CH2(1-naphthyl) = c1ccc2c(C*)cccc2c1; Glutaryl = O=C(CCCC(=O)[*:2])[*:1]; Hyp = O=C(O)[C@@H]1C[C@@H](O)CN1; AllylGly = C=CC[C@H](N)C(=O)O; Chg = N[C@H](C(=O)O)C1CCCCC1; Suc = O=C(CCC(=O)[*:2])[*:1]; Tle = CC(C)(C)[C@H](N)C(=O)O; Ac5c = NC1(C(=O)O)CCCC1; Nva = CCC[C@H](N)C(=O)O; X1 = c1ccc2cc(C*)ccc2c1; X4 = Brc1cc(Br)cc(C*)c1; Abu = CC[C@H](N)C(=O)O; Ac3c = NC1(C(=O)O)CC1; Boc = CC(C)(C)OC(=O)*; X2 = Brc1cccc(C*)c1; X3 = CC(=O)OCC(=O)*; X6 = Ic1cccc(C*)c1; Bn = c1ccc(C*)cc1

Molecular target: T1, HCV NS3 protease type 1b/NS4A cofactor peptide (Hepatitis C virus genotype 1b, UniProt P26663)
T1 construct: recombinant HCV NS3 protease (amino acid 1027 to 1206) was cloned in the pET11d bacterial expression vector; made in house; host or cells: E. coli BL21(DE3)pLysS
T1 sequence (P26663 1027-1206, other chains not shown): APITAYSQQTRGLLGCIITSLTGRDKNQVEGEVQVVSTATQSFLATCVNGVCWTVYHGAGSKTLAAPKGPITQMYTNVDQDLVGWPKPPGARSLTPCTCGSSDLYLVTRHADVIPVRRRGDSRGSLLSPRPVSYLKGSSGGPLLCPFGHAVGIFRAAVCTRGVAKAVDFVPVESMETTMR
Assay: Recombinant HCV NS3 protease/NS4A cofactor peptide radiometric assay
Assay type: biochemical, HCV genotype 1b
Settings: read-out: IC50
Protocol: Recombinant HCV NS3 Protease/NS4A Cofactor Peptide Radiometric Assay.
The enzyme was stored at −80° C., thawed on ice and diluted just prior to use in the assay buffer containing the NS4A cofactor peptide.
The substrate used for the NS3 protease/NS4A cofactor peptide radiometric assay, DDIVPC-SMSYTW [SEQ. ID NO. 2], is cleaved between the cysteine and the serine residues by the enzyme. The sequence DDIVPC-SMSYTW [SEQ. ID NO. 2] corresponds to the NS5A/NS5B natural cleavage site in which the cysteine residue in P2 has been substituted for a proline. The peptide substrate DDIVPC-SMSYTW [SEQ. ID NO. […] ID NO. […] [SEQ. ID NO. 5] (molar ratio enzyme: cofactor 1:100) in the absence or presence of inhibitors. The separation of substrate from products is performed by adding avidin-coated agarose beads to the assay mixture followed by filtration. […] ID NO. 4] product found in the filtrate allows for the calculation of the percentage of substrate conversion and of the percentage of inhibition.
Tris and Tris-HCl (UltraPure) were obtained from Gibco-BRL. Glycerol (UltraPure), MES and BSA were purchased from Sigma. TCEP was obtained from Pierce, DMSO from Aldrich and NaOH from Anachemia.
Assay buffer: 50 mM Tris HCl, pH 7.5, 30% (w/v) glycerol, 1 mg/mL BSA, 1 mM TCEP (TCEP added just prior to use from a 1 M stock solution in water).
Substrate: […] [SEQ. ID NO.
ID NO. 3] (˜1 nM final concentration).
The assay was performed in a 96-well polypropylene plate from Costar. Each well contained:
20 μL substrate/tracer in assay buffer;
10 μL±inhibitor in 20% DMSO/assay buffer;
10 μL NS3 protease 1b/NS4 cofactor peptide (molar ratio 1:100).
Blank (no inhibitor and no enzyme) and control (no inhibitor) were also prepared on the same assay plate.
The enzymatic reaction was initiated by the addition of the enzyme/NS4A peptide solution and the assay mixture was incubated for 40 min at 23° C. under gentle agitation. Ten (10) μL of 0.5N NaOH were added and 10 μL 1 M MES, pH 5.8 were added to quench the enzymatic reaction.
Twenty (20) μL of avidin-coated agarose beads (purchased from Pierce) were added in a Millipore MADP N65 filtration plate. The quenched assay mixture was transferred to the filtration plate, and incubated for 60 min at 23° C. under gentle agitation.
The plates were filtered using a Millipore MultiScreen Vacuum Manifold Filtration apparatus, and 40 μL of the filtrate was transferred in an opaque 96-well plate containing 60 μL of scintillation fluid per well.
The % inhibition was calculated with the following equation:
100-[(countsinh-countsblank)/(countsctl-countsblank)×100]

[1] = Table 2, unmarked values: NS3 protease/NS4A cofactor peptide radiometric assay
[2] = Table 1, unmarked values: NS3 protease/NS4A cofactor peptide radiometric assay

## CC(=O)N[C@H](C(=O)N[C@H](C(=O)N1C[C@H](OCc2ccccc2)C[C@H]1C(=O)N[C@@H](CS)C(=O)O)C(C)C)C1CCCCC1 [compound 261] (Ac-[Chg]V[Hyp](Bn)C-OH)
[1]
  IC50: 28 µM

## CC[C@H](C)[C@H](NC(C)=O)C(=O)N[C@H](C(=O)N1C[C@H](OCc2cccc3ccccc23)C[C@H]1C(=O)NC1(C(=O)O)CC1)C(C)C [compound 262] (Ac-IV[Hyp](CH2(1-naphthyl))[Ac3c]-OH)
[1]
  IC50: 40 µM

## Ac-EDIVPC [compound 102]
[2]
  IC50: 59 µM

## CC[C@H](C)[C@H](NC(=O)[C@H](CC(=O)O)NC(=O)[C@H](CC(=O)O)NC(C)=O)C(=O)N[C@H](C(=O)N1CCC[C@H]1C(=O)NC1(C(=O)O)CC1)C(C)C [compound 126] (Ac-DDIVP[Ac3c]-OH)
[2]
  IC50: 45 µM

## Ac-DDIVIC [compound 119]
[2]
  IC50: 90 µM

## CCC[C@H](NC(=O)[C@@H]1C[C@@H](OCc2ccccc2)CN1C(=O)[C@@H](NC(=O)[C@@H](NC(=O)[C@H](NC(=O)[C@H](CC(=O)O)NC(C)=O)C(C)C)[C@@H](C)CC)C(C)C)C(=O)O [compound 202] (Ac-D[dV]IV[Hyp](Bn)[Nva]-OH)
[1]
  IC50: 0.93 µM

## CC(C)(C)OC(=O)N[C@H](C(=O)N[C@H](C(=O)N1C[C@H](OCc2cccc3ccccc23)C[C@H]1C(=O)NC1(C(=O)O)CC1)C1CCCCC1)C1CCCCC1 [compound 235] (Boc-[Chg][Chg][Hyp](CH2(1-naphthyl))[Ac3c]-OH)
[1]
  IC50: 12 µM

## CCC[C@H](NC(=O)[C@@H]1C[C@@H](OCc2ccccc2)CN1C(=O)[C@@H](NC(=O)[C@@H](NC(=O)[C@H](CC(=O)O)NC(=O)[C@H](CC(=O)O)NC(C)=O)[C@@H](C)CC)C(C)C)C(=O)O [compound 201] (Ac-DDIV[Hyp](Bn)[Nva]-OH)
[1]
  IC50: 7.2 µM

## CC[C@H](C)[C@H](NC(=O)[C@@H](CCC(=O)O)NC(=O)[C@H](CC(=O)O)NC(C)=O)C(=O)N[C@H](C(=O)N1CCC[C@H]1C(=O)N[C@@H](CS)C(=O)O)C(C)C [compound 105] (Ac-D[dE]IVPC-OH)
[2]
  IC50: 1.5 µM

## CCC[C@H](NC(=O)[C@@H]1C[C@@H](OCc2cccc3ccccc23)CN1C(=O)[C@@H](NC(=O)[C@@H](NC(=O)[C@H](CC(=O)O)NC(C)=O)[C@@H](C)CC)C(C)C)C(=O)O [compound 219] (Ac-DIV[Hyp](CH2(1-naphthyl))[Nva]-OH)
[1]
  IC50: 2.3 µM

## CC[C@H](C)[C@H](NC(=O)[C@@H](CC(=O)O)NC(=O)[C@H](CC(=O)O)NC(C)=O)C(=O)N[C@H](C(=O)N1CCC[C@H]1C(=O)N[C@@H](CS)C(=O)O)C(C)C [compound 104] (Ac-D[dD]IVPC-OH)
[2]
  IC50: 8.5 µM

## CC(=O)OCC(=O)N[C@H](C(=O)N[C@H](C(=O)N1C[C@H](OCc2cccc3ccccc23)C[C@H]1C(=O)NC1(C(=O)O)CC1)C1CCCCC1)C1CCCCC1 [compound 232] (X3-[Chg][Chg][Hyp](CH2(1-naphthyl))[Ac3c]-OH)
[1]
  IC50: 1.4 µM

## CC[C@H](C)[C@H](NC(=O)[C@@H](NC(=O)[C@H](CC(=O)O)NC(C)=O)C(C)(C)C)C(=O)N[C@H](C(=O)N1CCC[C@H]1C(=O)N[C@@H](CS)C(=O)O)C(C)C [compound 108] (Ac-D[Tle]IVPC-OH)
[2]
  IC50: 31 µM

## CCC[C@H](NC(=O)[C@@H]1CCCN1C(=O)[C@@H](NC(=O)[C@@H](NC(=O)[C@@H](CCC(=O)O)NC(=O)[C@H](CC(=O)O)NC(C)=O)[C@@H](C)CC)C(C)C)C(=O)O [compound 128] (Ac-D[dE]IVP[Nva]-OH)
[2]
  IC50: 7.4 µM

## CCC[C@H](NC(=O)[C@@H]1CCCN1C(=O)[C@@H](NC(=O)[C@@H](NC(=O)[C@H](CC(=O)O)NC(=O)CCC(=O)O)[C@@H](C)CC)C(C)C)C(=O)O [compound 130] (Suc-DIVP[Nva]-OH)
[2]
  IC50: 123 µM

## CC[C@H](C)[C@H](NC(=O)[C@H](CC(=O)O)NC(=O)[C@H](CC(=O)O)NC(C)=O)C(=O)N[C@H](C(=O)N1C[C@H](OCc2ccccc2)C[C@H]1C(=O)N[C@@H](CS)C(=O)O)C(C)C [compound 121] (Ac-DDIV[Hyp](Bn)C-OH)
[2]
  IC50: 1.7 µM

## CC(=O)N[C@@H](CC(=O)O)C(=O)N[C@H](CCC(=O)O)C(=O)N[C@H](C(=O)N[C@@H](CCC(=O)O)C(=O)N[C@@H](CCC(=O)O)C(=O)NC1(C(=O)O)CC1)C1CCCCC1 [compound 132] (Ac-D[dE][Chg]EE[Ac3c]-OH)
[2]
  IC50: 36 µM

## Ac-DDIVPC [compound 101]
[2]
  IC50: 46 µM

## CCC[C@H](NC(=O)[C@@H]1C[C@@H](OCc2cccc3ccccc23)CN1C(=O)[C@@H](NC(=S)[C@@H](NC(=O)CNC(C)=O)[C@@H](C)CC)C(C)C)C(=O)O [compound 236]
[1]
  IC50: 4 µM

## CCC[C@H](NC(=O)[C@@H]1C[C@@H](OCc2ccc3ccccc3c2)CN1C(=O)[C@@H](NC(=O)[C@@H](NC(=O)[C@@H](CCC(=O)O)NC(=O)[C@H](CC(=O)O)NC(C)=O)[C@@H](C)CC)C(C)C)C(=O)O [compound 213] (Ac-D[dE]IV[Hyp](X1)[Nva]-OH)
[1]
  IC50: 0.036 µM

## CC[C@H](C)[C@H](NC(=O)[C@H](CC(=O)O)NC(=O)CCC(=O)O)C(=O)N[C@H](C(=O)N1CCC[C@H]1C(=O)N[C@@H](CS)C(=O)O)C(C)C [compound 103] (Suc-DIVPC-OH)
[2]
  IC50: 26 µM

## C=CC[C@H](NC(=O)[C@@H]1CCCN1C(=O)[C@@H](NC(=O)[C@@H](NC(=O)[C@H](CC(=O)O)NC(=O)[C@H](CC(=O)O)NC(C)=O)[C@@H](C)CC)C(C)C)C(=O)O [compound 124] (Ac-DDIVP[AllylGly]-OH)
[2]
  IC50: 210 µM

## CC[C@H](C)[C@H](NC(=O)[C@H](CCC(=O)O)NC(=O)[C@H](CC(=O)O)NC(C)=O)C(=O)N[C@H](C(=O)N1C[C@H](OCc2cccc(I)c2)C[C@H]1C(=O)NC1(C(=O)O)CC1)C(C)C [compound 233] (Ac-DEIV[Hyp](X6)[Ac3c]-OH)
[1]
  IC50: 0.14 µM

## CC[C@H](C)[C@H](NC(=O)[C@H](CC(=O)O)NC(=O)[C@H](CC(=O)O)NC(C)=O)C(=O)N[C@H](C(=O)N1CCC[C@H]1C(=O)NC1(C(=O)O)CCCC1)C(C)C [compound 125] (Ac-DDIVP[Ac5c]-OH)
[2]
  IC50: 210 µM

## CCC[C@H](NC(=O)[C@@H]1C[C@@H](OCc2cccc3ccccc23)CN1C(=O)[C@@H](NC(=O)[C@@H](NC(=O)CCC(=O)O)[C@@H](C)CC)C(C)C)C(=O)O [compound 221] (Suc-IV[Hyp](CH2(1-naphthyl))[Nva]-OH)
[1]
  IC50: 22 µM

## CC(=O)N[C@H](C(=O)N[C@H](C(=O)N1C[C@H](OCc2cccc(Br)c2)C[C@H]1C(=O)NC1(C(=O)O)CC1)C(C)C)C1CCCCC1 [compound 268] (Ac-[Chg]V[Hyp](X2)[Ac3c]-OH)
[1]
  IC50: 24 µM

## CCC[C@H](NC(=O)[C@@H]1C[C@@H](OCc2ccc3ccccc3c2)CN1C(=O)[C@@H](NC(=O)[C@@H](NC(=O)[C@H](CC(=O)O)NC(=O)[C@H](CC(=O)O)NC(C)=O)[C@@H](C)CC)C(C)C)C(=O)O [compound 208] (Ac-DDIV[Hyp](X1)[Nva]-OH)
[1]
  IC50: 0.71 µM

## CC(=O)N[C@H](C(=O)N[C@H](C(=O)N1C[C@H](OCc2cc(Br)cc(Br)c2)C[C@H]1C(=O)NC1(C(=O)O)CC1)C(C)C)C1CCCCC1 [compound 272] (Ac-[Chg]V[Hyp](X4)[Ac3c]-OH)
[1]
  IC50: 27 µM

## CC(=O)N[C@H](C(=O)N[C@H](C(=O)N1C[C@H](Oc2ccc(I)cc2)C[C@H]1C(=O)NC1(C(=O)O)CC1)C(C)C)C1CCCCC1 [compound 249]
[1]
  IC50: 9.7 µM

## CC(C)[C@H](NC(=O)[C@@H](NC(=O)CCCC(=O)O)C1CCCCC1)C(=O)N1C[C@H](OCc2cccc3ccccc23)C[C@H]1C(=O)NC1(C(=O)O)CC1 [compound 226] (Glutaryl-[Chg]V[Hyp](CH2(1-naphthyl))[Ac3c]-OH)
[1]
  IC50: 0.76 µM

## CC(=O)N[C@@H](CC(=O)O)C(=O)N[C@@H](CC(=O)O)C(=O)N[C@H](C(=O)N[C@H](C(=O)N1CCC[C@H]1C(=O)N[C@@H](CS)C(=O)O)C(C)C)C(C)(C)C [compound 111] (Ac-DD[Tle]VPC-OH)
[2]
  IC50: 79 µM

## CC[C@H](NC(=O)[C@@H]1CCCN1C(=O)[C@@H](NC(=O)[C@@H](NC(=O)[C@H](CC(=O)O)NC(=O)[C@H](CC(=O)O)NC(C)=O)[C@@H](C)CC)C(C)C)C(=O)O [compound 122] (Ac-DDIVP[Abu]-OH)
[2]
  IC50: 315 µM

## CC(=O)N[C@@H](CC(=O)O)C(=O)N[C@H](CCC(=O)O)C(=O)N[C@H](C(=O)N[C@H](C(=O)N1C[C@H](OCc2cccc3ccccc23)C[C@H]1C(=O)NC1(C(=O)O)CC1)C(C)C)C1CCCCC1 [compound 215] (Ac-D[dE][Chg]V[Hyp](CH2(1-naphthyl))[Ac3c]-OH)
[1]
  IC50: 0.014 µM
